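48-hour exposure; five concentrations; linearly interpolated endpoints. TGI is the concentration that stops growth completely.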
Columns and labels:
Assay in all cases: inhibition of tumour cell growth, NCI panel, 48 h
UACC-257 melanoma = system: UACC-257 melanoma
RPMI-8226 leukemia = system: RPMI-8226 leukemia
SN12C renal = system: SN12C renal
SW-620 colon = system: SW-620 colon
CAKI-1 renal = system: CAKI-1 renal
RXF-631 renal = system: RXF-631 renal
EKVX NSCLC = system: EKVX NSCLC
DMS 114 small cell lung = system: DMS 114 small cell lung
SK-MEL-5 melanoma = system: SK-MEL-5 melanoma
TK-10 renal = system: TK-10 renal
SNB-78 CNS = system: SNB-78 CNS
HCC-2998 colon = system: HCC-2998 colon
DMS 273 small cell lung = system: DMS 273 small cell lung
SF-268 CNS = system: SF-268 CNS
UACC-62 melanoma = system: UACC-62 melanoma
IGROV1 ovarian = system: IGROV1 ovarian
HL-60(TB) leukemia = system: HL-60(TB) leukemia
MALME-3M melanoma = system: MALME-3M melanoma
DLD-1 colon = system: DLD-1 colon
XF 498 CNS = system: XF 498 CNS
HCT-15 colon = system: HCT-15 colon
NCI-H522 lung = system: NCI-H522 lung
786-0 renal = system: 786-0 renal
NCI-H460 lung = system: NCI-H460 lung
ACHN renal = system: ACHN renal
SK-OV-3 ovarian = system: SK-OV-3 ovarian
OVCAR-5 ovarian = system: OVCAR-5 ovarian
LOX IMVI melanoma = system: LOX IMVI melanoma
HOP-92 NSCLC = system: HOP-92 NSCLC
UO-31 renal = system: UO-31 renal
RXF 393 renal = system: RXF 393 renal
OVCAR-4 ovarian = system: OVCAR-4 ovarian
KM20L2 colon = system: KM20L2 colon
SF-295 CNS = system: SF-295 CNS
OVCAR-8 ovarian = system: OVCAR-8 ovarian
CCRF-CEM leukemia = system: CCRF-CEM leukemia
SF-539 CNS = system: SF-539 CNS
M14 melanoma = system: M14 melanoma
HT29 colon = system: HT29 colon
COLO 205 colon = system: COLO 205 colon
KM12 colon = system: KM12 colon
HCT-116 colon = system: HCT-116 colon
SK-MEL-28 melanoma = system: SK-MEL-28 melanoma
HOP-62 NSCLC = system: HOP-62 NSCLC
M19-MEL melanoma = system: M19-MEL melanoma
U251 CNS = system: U251 CNS
SNB-75 CNS = system: SNB-75 CNS
NCI-H226 lung = system: NCI-H226 lung
SR leukemia = system: SR leukemia
K-562 leukemia = system: K-562 leukemia
SNB-19 CNS = system: SNB-19 CNS
NCI-H23 lung = system: NCI-H23 lung
A549 NSCLC = system: A549 NSCLC
SK-MEL-2 melanoma = system: SK-MEL-2 melanoma
OVCAR-3 ovarian = system: OVCAR-3 ovarian
LXFL 529 NSCLC = system: LXFL 529 NSCLC
MOLT-4 leukemia = system: MOLT-4 leukemia

Measured: TGI

CC(C)(C)[C@H]1CO[C@]2(C)[C@@H]3C[C@@H]3C(=O)N12
not listed: LXFL 529 NSCLC | MOLT-4 leukemia
> 100 µM: all other assays above

COC(=O)c1c(CC#N)cccc1CC#N
not listed: SK-MEL-5 melanoma | TK-10 renal | SNB-78 CNS | SK-MEL-28 melanoma
> 100 µM: all other assays above

Source: PubChem BioAssay (NCI)
